Results as given in patent US20230338545A1 (SYRACUSE UNIVERSITY, priority 2020, published 2023).
Entries after “also recorded” stand apart in the source; their conditions may differ.

Tests used:
CaCo-2 cells = test: Cellular uptake of magnesium in CaCo-2 cells; format: cell-based, human; details: incubation time 1 hr, samples contain ~8% magnesium citrate
[1] = comparison value; cited from earlier work

Molecule: magnesium maltol [Complex 1]
- cellular uptake of magnesium (CaCo-2 cells): substantial uptake of magnesium; also recorded: confirmed cellular entry

Molecule: magnesium ethylmaltol [Complex 2]
- cellular uptake of magnesium (CaCo-2 cells): substantial uptake of magnesium; also recorded: slightly greater uptake than Complex 1; also recorded: confirmed cellular entry
- solubility (Solubility in water; Example 3 product): 26.8 g/100 mL H2O
- solubility relative to that of the free ligand (Solubility in water; complex vs. its ligand (maltol or ethylmaltol), water): approximately 4.9 ×
- solubility (Solubility in water; triplicate independent runs): 28.4±0.86 g per 100 mL of H2O

Molecule: CCc1occc(=O)c1O [ethylmaltol]
- water solubility of free ligand [1]: 5.84 g/100 mL

Molecule: Cc1occc(=O)c1O [maltol, 3-HYDROXY-2-METHYL-4H-PYRAN-4-ONE]
- water solubility of free ligand [1]: 1.2 g/100 mL
